Results as given in patent US9828622B2, “Photoactivatable antimicrobial agents and therapeutic and diagnostic methods of using same” (The General Hospital Corporation, priority 2008, dated 2017).
Entries after “also recorded” stand apart in the source; their conditions may differ. Read-outs that look alike come from different tables or passages of the source.

Tests used:
B. cereus = test: Growth inhibition / MIC assay; type: cell-based, Bacillus cereus
Protocol: (§1) (a.) inhibition constants of a panel of β-lactams for the competitive substrate inhibition of β-LEAP hydrolysis by B. cereus β-lactamase, (b.) inhibition constants for β-LEAP hydrolysis by bacterial suspensions, (c.) inhibition profiles of panel of β-lactams for B. cereus, (d.) MICs of panel of β-lactams for B. cereus. […] Statistical significance was determined via Tukey multiple comparison test using Graphpad Prism 5. Horizontal bars connected by solid intersections indicate significant difference.
(§2) This approach involved combining in a 384 multi-well assay plate format purified B. cereus beta-lactamase or bacterial suspensions with the β-LEAP of the invention and a competitive beta-lactam substrate, including amoxicillin, clavulanic acid, ampicillin, penicillin G, carbenicillin, cefazolin, cefatoxime or ceftazidime.

[1] = biological target: purified B. cereus beta-lactamase; test: Competitive substrate inhibition of β-LEAP hydrolysis, purified enzyme; type: biochemical, Bacillus cereus; conditions: competitive beta-lactam substrate; 384 multi-well plate
Protocol: as §1
(§3) This Example describes a new methodology for use in characterizing beta-lactamases by using a competitive substrate inhibition assay. It is believed that no competitive substrate inhibition assays for determining beta-lactamase functionality are currently in use by clinical microbiology laboratories. This new approach is based on exploiting the sensitivity and mechanism of the β-LEAP compound of the invention. More in particular, this approach is based on measuring the level of induced-fluorescence caused by the cleavage/hydrolysis and consequent activation of the β-LEAP compound by beta-lactamase enzymes under evaluation while also in the presence of, or “in competition” with, different types and amounts of beta-lactamase enzyme substrates. The degree of inhibition of β-LEAP hydrolysis/fluorescence due to competition with the beta-lactam competitor substrates is determined, which provides the basis for determining beta-lactamase functionality.
as §2

[2] = biological target: Bacillus cereus 5/β bacterial suspensions; test: Competitive substrate inhibition of β-LEAP hydrolysis, bacterial suspensions; type: cell-based; conditions: competitive beta-lactam substrate; whole bacteria suspensions
Protocol: as §1, §3, §2

[3] = Photosensitizing efficacy
Excerpt: The terminal carboxyl group with the flexible alkyl chain provides an ideal site for conjugation. 7-amino-3-chloromethyl-3-cephem-4-carboxylic acid p-methoxybenzyl ester (ACLE, commercial available) is used as cephalosporin scaffold. ACLE is a common starting material to synthesize cephalosporin derivatives. It integrates an amino group at 7-position. By replacing chlorine at 3′-position with 4-amino-thiophenol provides an additional amino group therefore each ACLE molecule can accommodate two EtNBS-COOH molecules to form a static quenching pair.

Row | Molecule | in vitro growth inhibition (MIC assay) (B. cereus) | inhibition of β-LEAP hydrolysis/fluorescence (inhibition constants, Ki, FIG. 13a) [1] | inhibition of β-LEAP hydrolysis/fluorescence (inhibition constants, Ki, FIG. 13b) [2] | other results
1 | CC1(C)S[C@@H]2[C@H](NC(=O)[C@H](N)c3ccc(O)cc3)C(=O)N2[C@H]1C(=O)O [amoxicillin] | no inhibition | detected | – | in vitro growth inhibition (MIC assay) (B. cereus; listed as Amoxicillin): did not inhibit the growth
2 | CO/N=C(\C(=O)N[C@@H]1C(=O)N2C(C(=O)O)=C(COC(C)=O)CS[C@H]12)c1csc(N)n1 [cefatoxime] | – | more effective inhibitors | more effective inhibitors | –
3 | CCN(CC)c1ccc2nc3c(cc(NCCCCC(=O)O)c4ccccc43)[s+]c2c1 [EtNBS-COOH, 5-(4′-carboxybutylamino)-9-diethylaminobenzo[a]phenothiazine] | – | – | – | photosensitizing efficacy [3]: excellent photosensitizing efficacy
4 | CC1(C)S[C@@H]2[C@H](NC(=O)[C@H](N)c3ccccc3)C(=O)N2[C@H]1C(=O)O [ampicillin] | did not inhibit the growth | detected | – | in vitro growth inhibition (MIC assay) (B. cereus; listed as ampillin): no inhibition
5 | CC(C)(O/N=C(\C(=O)N[C@@H]1C(=O)N2C(C(=O)[O-])=C(C[n+]3ccccc3)CS[C@H]12)c1csc(N)n1)C(=O)O [ceftazidime] | – | more effective inhibitors | more effective inhibitors | –
6 | cephalothin | – | more effective inhibitors | more effective inhibitors | –
7 | O=C(O)[C@H]1/C(=C/CO)O[C@@H]2CC(=O)N21 [clavulanic acid] | no inhibition; also recorded: did not inhibit the growth | – | – | –
